Assays:
Assay type in all cases: in vivo
transgenic rice Line 29 = experiment: Response of rice plants to various herbicides, seed set in greenhouse; conditions: post-emergence, 1× g ai/ha: PURSUIT 62.5, CADRE 32, ARSENAL 24, RAPTOR 32, SCEPTER 125, ACCENT 35, CLASSIC 5, AC322,140 20, LONDAX 68
Excerpt: (§1) A total of 9 herbicides, 5 imidazolinones, two rice herbicides and ACCENT® (nicosulfuron) and CLASSIC® (clorimuron-ethyl) were applied in this study. Materials and methods were basically the same as described above, except that instead of 6″ pots, flats with 18 (3″×3″ per cell) cells were used, and 10-12 seeds were planted to one 3″×3″ cell. Ten plants were maintained in one cell in the post-emergence application. Each herbicide was sprayed at 4 different rates, 1, 2, 4, and 6×, as either pre or post-emergence applications with three replications per treatment. The name and amount of herbicide applied in this experiment and information relevant to their commercial applications are listed in Table 3. For simplicity and convenience, the lowest concentration used is referred as 1× rate, 2, 4 and 6× rates can be calculated as multiples of 1×.
(§2) To monitor plant response to various herbicides, data on fresh weight was collected. For pre-emergence applications, all plants from one cell were harvested 32 days after spraying (36-day old plants) and weighed. Twenty-nine days after herbicide application, 5 plants (44-day old plants) from each cell in the post-emergence application, were cut and weighed individually. Mean fresh weight for each treatment was calculated over three replications. The remaining 5 plants were grown in the greenhouse to maturity at which time, panicles of 3 plants were collected, and number of filled seeds and number of total kernels were counted to determine percentage of seed set.

transgenic rice Line 26 = experiment: as above; conditions: post-emergence, 1× g ai/ha: PURSUIT 62.5, CADRE 32, ARSENAL 24, RAPTOR 32, SCEPTER 125, ACCENT 35, CLASSIC 5, AC322,140 20, LONDAX 68
Excerpt: as §1, §2

[1] = test system: untransformed Nt rice plants; experiment: as above; conditions: post-emergence, 1× g ai/ha: PURSUIT 62.5, CADRE 32, ARSENAL 24, RAPTOR 32, SCEPTER 125, ACCENT 35, CLASSIC 5, AC322,140 20, LONDAX 68
Excerpt: as §1, §2

[2] = test system: rice plants (transgenic Lines 26 and 29; Nt control); experiment: Greenhouse herbicide tests on rice; conditions: for effect on growth of all plants treated: transgenic and control plants
Excerpt: We evaluated the response of transgenic rice to PURSUIT® imazethapyr application in the greenhouse. In this experiment, we included 2 transgenic lines and their untransformed counterpart (Nt). The transgenic lines, designated as Line 26 and 29, were T3 progeny derived from previously identified homozygous resistant transgenic plants containing the maize XI12 ahas2 gene driven by its own promoter. All seeds were pre-germinated in water for 2-3 days then grown in a planting mixture consisting of 1:1 soil and MetroMix 360 (The Scotts Company, Marysville, Ohio 43040) in 6-inch pots (2 seeds per pot) in the greenhouse and sprayed with PURSUIT® imazethapyr at 63, 125, or 250 g ai/ha. For post-emergence application, the plants were sprayed 15 days after seeding, at which time most plants had 3 leaves. For pre-emergence treatment, PURSUIT® imazethapyr was sprayed one day after seeding. Each treatment contained 20 plants and, and 3 replicates per treatment. One set of materials was not sprayed and used as control. The plants were grown in the greenhouse and harvested at maturity. The amount of PURSUIT® imazethapyr applied in this study (63, 125, or 250 g ai/ha) was close to 1, 2 or 4× field application rate for imi-resistant corn (refer to Table 3) since PURSUIT® imazethapyr is not currently labeled for use in rice fields. A custom designed belt sprayer was operated as described (Newhouse et al. 1992) for all herbicide applications. Five plants from each treatment were randomly chosen and individually measured for morphological traits. Means and standard deviations were calculated over three replications. Plant heights were measured from the base of the plant to the tip of the flag leaf 93 days after herbicide applications (DAH) and number of tillers per plant were counted 102-103 DAH. Data on number of panicles per plant and yield were collected after plants were harvested.
as §1, §2

SMILES	% seed-set (transgenic rice Line 29; 1× rate) [%]	No. filled seeds/3 panicles (transgenic rice Line 29; 1× rate)	Total No. of kernels/3 panicles (transgenic rice Line 29; 1× rate)	% seed-set (transgenic rice Line 29; 2× rate) [%]	No. filled seeds/3 panicles (transgenic rice Line 29; 2× rate)	Total No. of kernels/3 panicles (transgenic rice Line 29; 2× rate)	% seed-set (transgenic rice Line 29; 4× rate) [%]	No. filled seeds/3 panicles (transgenic rice Line 29; 4× rate)	Total No. of kernels/3 panicles (transgenic rice Line 29; 4× rate)	% seed-set (transgenic rice Line 29; 6× rate) [%]	No. filled seeds/3 panicles (transgenic rice Line 29; 6× rate)	Total No. of kernels/3 panicles (transgenic rice Line 29; 6× rate)	% seed-set (transgenic rice Line 26; 1× rate) [%]	No. filled seeds/3 panicles (transgenic rice Line 26; 1× rate)	Total No. of kernels/3 panicles (transgenic rice Line 26; 1× rate)	% seed-set (transgenic rice Line 26; 2× rate) [%]	No. filled seeds/3 panicles (transgenic rice Line 26; 2× rate)	Total No. of kernels/3 panicles (transgenic rice Line 26; 2× rate)	% seed-set (transgenic rice Line 26; 4× rate) [%]	No. filled seeds/3 panicles (transgenic rice Line 26; 4× rate)	also measured
COc1cc(OC)nc(NC(=O)NS(=O)(=O)Nc2ccccc2C(=O)C2CC2)n1 [AC 322,140, cyclosulfamuron]	91	150	166	92	172	187	80	129	160	87	134	154	90	144	160	94	158	168	91	166	Total No. of kernels/3 panicles (transgenic rice Line 26; 4× rate): 182; % seed-set (transgenic rice Line 26; 6× rate): 85%; No. filled seeds/3 panicles (transgenic rice Line 26; 6× rate): 134; Total No. of kernels/3 panicles (transgenic rice Line 26; 6× rate): 158; % seed-set ([1]; 1× rate): 93%; No. filled seeds/3 panicles ([1]; 1× rate): 175; Total No. of kernels/3 panicles ([1]; 1× rate): 187; % seed-set ([1]; 2× rate): 93%; No. filled seeds/3 panicles ([1]; 2× rate): 158; Total No. of kernels/3 panicles ([1]; 2× rate): 171; % seed-set ([1]; 4× rate): 95%; No. filled seeds/3 panicles ([1]; 4× rate): 83; Total No. of kernels/3 panicles ([1]; 4× rate): 86; % seed-set ([1]; 6× rate): 98%; No. filled seeds/3 panicles ([1]; 6× rate): 118; Total No. of kernels/3 panicles ([1]; 6× rate): 121; effect on growth of all plants treated [2]: minimal effect
COc1cc(OC)nc(NC(=O)NS(=O)(=O)c2ncccc2C(=O)N(C)C)n1 [ACCENT ®, nicosulfuron]	82	94	114	10	24	48	0	0	0	0	0	0	34	82	145	0	0	0	0	0	Total No. of kernels/3 panicles (transgenic rice Line 26; 4× rate): 0; % seed-set (transgenic rice Line 26; 6× rate): 0%; No. filled seeds/3 panicles (transgenic rice Line 26; 6× rate): 0; Total No. of kernels/3 panicles (transgenic rice Line 26; 6× rate): 0; % seed-set ([1]; 1× rate): 3%; No. filled seeds/3 panicles ([1]; 1× rate): 6; Total No. of kernels/3 panicles ([1]; 1× rate): 24; % seed-set ([1]; 2× rate): 0%; No. filled seeds/3 panicles ([1]; 2× rate): 0; Total No. of kernels/3 panicles ([1]; 2× rate): 0; % seed-set ([1]; 4× rate): 0%; No. filled seeds/3 panicles ([1]; 4× rate): 0; Total No. of kernels/3 panicles ([1]; 4× rate): 0; % seed-set ([1]; 6× rate): 0%; No. filled seeds/3 panicles ([1]; 6× rate): 0; Total No. of kernels/3 panicles ([1]; 6× rate): 0; effect on plant growth at 1× rates ([2]; post-emergence): greatly affected plant growth
CCOC(=O)c1ccccc1S(=O)(=O)NC(=O)Nc1nc(Cl)cc(OC)n1 [CLASSIC ®, chlorimuron-ethyl]	88	115	130	85	112	132	37	35	45	4	5	14	83	95	114	93	100	108	28	26	Total No. of kernels/3 panicles (transgenic rice Line 26; 4× rate): 65; % seed-set (transgenic rice Line 26; 6× rate): 20%; No. filled seeds/3 panicles (transgenic rice Line 26; 6× rate): 10; Total No. of kernels/3 panicles (transgenic rice Line 26; 6× rate): 18; % seed-set ([1]; 1× rate): 87%; No. filled seeds/3 panicles ([1]; 1× rate): 87; Total No. of kernels/3 panicles ([1]; 1× rate): 99; % seed-set ([1]; 2× rate): 92%; No. filled seeds/3 panicles ([1]; 2× rate): 90; Total No. of kernels/3 panicles ([1]; 2× rate): 97; % seed-set ([1]; 4× rate): 0%; No. filled seeds/3 panicles ([1]; 4× rate): 0; Total No. of kernels/3 panicles ([1]; 4× rate): 0; % seed-set ([1]; 6× rate): 0%; No. filled seeds/3 panicles ([1]; 6× rate): 0; Total No. of kernels/3 panicles ([1]; 6× rate): 0; effect on plant growth at 1× rates ([2]; post-emergence): greatly affected plant growth
COC(=O)c1ccccc1CS(=O)(=O)NC(=O)Nc1nc(OC)cc(OC)n1 [LONDAX ®, bensulfuron-methyl]	80	125	156	90	133	148	87	155	177	86	150	175	80	140	173	90	140	156	65	102	Total No. of kernels/3 panicles (transgenic rice Line 26; 4× rate): 136; % seed-set (transgenic rice Line 26; 6× rate): 89%; No. filled seeds/3 panicles (transgenic rice Line 26; 6× rate): 127; Total No. of kernels/3 panicles (transgenic rice Line 26; 6× rate): 143; % seed-set ([1]; 1× rate): 85%; No. filled seeds/3 panicles ([1]; 1× rate): 147; Total No. of kernels/3 panicles ([1]; 1× rate): 172; % seed-set ([1]; 2× rate): 93%; No. filled seeds/3 panicles ([1]; 2× rate): 142; Total No. of kernels/3 panicles ([1]; 2× rate): 154; % seed-set ([1]; 4× rate): 91%; No. filled seeds/3 panicles ([1]; 4× rate): 113; Total No. of kernels/3 panicles ([1]; 4× rate): 127; % seed-set ([1]; 6× rate): 96%; No. filled seeds/3 panicles ([1]; 6× rate): 109; Total No. of kernels/3 panicles ([1]; 6× rate): 114; effect on growth of all plants treated [2]: minimal effect
CC(C)C1(C)N=C(c2nc3ccccc3cc2C(=O)O)NC1=O (stereo not shown) [SCEPTER ®, imazaquin]	87	138	159	86	143	165	85	131	155	88	139	159	86	148	172	64	87	135	88	147	Total No. of kernels/3 panicles (transgenic rice Line 26; 4× rate): 166; % seed-set (transgenic rice Line 26; 6× rate): 62%; No. filled seeds/3 panicles (transgenic rice Line 26; 6× rate): 86; Total No. of kernels/3 panicles (transgenic rice Line 26; 6× rate): 109; % seed-set ([1]; 1× rate): 0%; No. filled seeds/3 panicles ([1]; 1× rate): 0; Total No. of kernels/3 panicles ([1]; 1× rate): 0; % seed-set ([1]; 2× rate): 0%; No. filled seeds/3 panicles ([1]; 2× rate): 0; Total No. of kernels/3 panicles ([1]; 2× rate): 0; % seed-set ([1]; 4× rate): 0%; No. filled seeds/3 panicles ([1]; 4× rate): 0; Total No. of kernels/3 panicles ([1]; 4× rate): 0; % seed-set ([1]; 6× rate): 0%; No. filled seeds/3 panicles ([1]; 6× rate): 0; Total No. of kernels/3 panicles ([1]; 6× rate): 0; average seed set in two transgenic lines ([2]; PURSUIT, RAPTOR, CADRE, SCEPTER at all rates tested, ARSENAL 1 to 2×): about 85%; rate at which growth of transgenic plants was slightly affected ([2]; post-emergence, fresh weight and visual observation): 6 ×; rate at which growth of both transgenic lines was affected ([2]; pre-emergence): ≥ 2 ×
